The test system of series [1] is Mus musculus. Kind of series: Antiinflammatory activity in C57BL/6 mouse assessed as reduction of LPS-induced IL-6 level in serum at 10 mg/kg/day pretreated for 48 hrs followed by LPS challenge measured after 5 hrs by ELISA. It counts as functional, organism-based.
The test system of series [2] is Mus musculus. Kind of series: Antiinflammatory activity in C57BL/6 mouse assessed as reduction of LPS-induced IL-17 level in serum at 10 mg/kg/day pretreated for 48 hrs followed by LPS challenge measured after 5 hrs by ELISA. The format is functional, organism-based.
In series [3] the test system is Mus musculus. Description: Antiinflammatory activity in C57BL/6 mouse assessed as reduction of LPS-induced IFN-gamma level in serum at 10 mg/kg/day pretreated for 48 hrs followed by LPS challenge measured after 5 hrs by ELISA. It counts as functional, organism-based.
Series [4] concerns Mus musculus. Description: Antiinflammatory activity in C57BL/6 mouse assessed as prevention of LPS-induced morphological changes in lung at 10 mg/kg/day pretreated for 48 hrs followed by LPS challenge measured after 5 hrs. The format is functional, organism-based.
In series [5] the test system is Mus musculus. Description: Antiinflammatory activity in C57BL/6 mouse assessed as suppression of LPS-induced IL-6 expression in lung at 10 mg/kg/day pretreated for 48 hrs followed by LPS challenge measured after 5 hrs by immunohistochemical analysis. It counts as functional, organism-based.
Series [6] has as its system Mus musculus. Description: Toxicity in C57BL/6 mouse assessed as effect on body weight at 10 mg/kg/day measured after 3 days. It counts as organism-based. The following applies: in vivo, 72 h.
In series [7] the test system is Mus musculus. Description: Antiinflammatory activity in C57BL/6 mouse assessed as reduction of LPS-induced IL-12 level in serum at 10 mg/kg/day pretreated for 48 hrs followed by LPS challenge measured after 5 hrs by ELISA. It counts as functional, organism-based. In general terms: ELISA stands for enzyme-linked immunosorbent assay.
Series [8] has as its system Mus musculus. Description: In vivo activation of Nrf2 in LPS-stimulated C57BL/6 mouse lung at 10 mg/kg/day pretreated for 48 hrs followed by LPS challenge measured after 5 hrs by DAPI staining-based laser scanning confocal microscopic analysis. The format is functional, organism-based.
Series [9] concerns Mus musculus. Kind of series: Antiinflammatory activity in C57BL/6 mouse assessed as reduction of LPS-induced TNF-alpha level in serum at 10 mg/kg/day pretreated for 48 hrs followed by LPS challenge measured after 5 hrs by ELISA. The format is functional, organism-based.
The target in series [10] is T1, Nuclear factor erythroid 2-related factor 2 (Homo sapiens) (UniProt Q16236).
T1 sequence (whole entry): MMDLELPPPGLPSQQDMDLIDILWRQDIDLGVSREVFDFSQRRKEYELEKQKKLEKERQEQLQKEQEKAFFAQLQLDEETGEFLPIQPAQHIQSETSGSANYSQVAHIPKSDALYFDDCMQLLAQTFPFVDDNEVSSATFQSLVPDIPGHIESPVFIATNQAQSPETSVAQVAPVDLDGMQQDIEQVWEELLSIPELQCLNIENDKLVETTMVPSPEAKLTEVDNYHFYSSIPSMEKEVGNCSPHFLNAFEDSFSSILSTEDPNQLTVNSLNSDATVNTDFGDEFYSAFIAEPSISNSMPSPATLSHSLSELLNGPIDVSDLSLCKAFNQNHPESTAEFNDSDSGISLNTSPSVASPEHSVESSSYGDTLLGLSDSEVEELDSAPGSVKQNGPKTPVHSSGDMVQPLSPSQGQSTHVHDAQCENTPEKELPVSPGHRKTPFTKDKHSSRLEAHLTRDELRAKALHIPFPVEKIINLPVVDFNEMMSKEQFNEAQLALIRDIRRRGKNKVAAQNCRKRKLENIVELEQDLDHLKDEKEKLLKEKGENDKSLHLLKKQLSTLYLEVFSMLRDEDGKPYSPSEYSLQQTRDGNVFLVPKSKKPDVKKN
Kind of series: Activation of Nrf2 in human HCT116 cells assessed as upregulation of HO-1 gene expression measured at 4 hrs by qRT-PCR analysis. Conditions: HCT-116. It counts as cell-based. (Real-time PCR tracks product formation cycle by cycle.)

Series [11] has as its system Mus musculus. Description: Antiinflammatory activity in C57BL/6 mouse assessed as prevention of LPS-induced morphological changes in lung at 10 to 80 mg/kg/day, ip pretreated for 48 hrs followed by LPS challenge measured after 5 hrs. The format is functional, organism-based.
For series [12], the system named is Mus musculus. Description: Toxicity in C57BL/6 mouse assessed as effect on body weight at 10 to 80 mg/kg/day, ip measured after 3 days. It counts as organism-based. The following applies: in vivo, 72 h.
In series [13] the target is T1, Nuclear factor erythroid 2-related factor 2 (Homo sapiens). Kind of series: Activation of Nrf2 in human HCT116 cells assessed as upregulation of GCS expression at 10 uM after 1 hr by Western blot analysis. It counts as cell-based. The following applies: HCT-116. For orientation: Immunoblotting shows a protein as a band on a membrane.
For series [14] the target is unchanged. Description: Activation of Nrf2 in human HCT116 cells assessed as upregulation of GCLM gene expression measured at 4 hrs by qRT-PCR analysis. It counts as cell-based. Conditions: HCT-116.
Series [15] shares this target. Description: Induction of Nrf2 translocation from cytoplasm to nucleus in human HCT116 cells after 12 hrs by DyLight 488 and DAPI staining-based laser scanning confocal microscopic analysis. It counts as cell-based. The following applies: HCT-116.
The target is the same in series [16]. Description: Activation of Nrf2 in human HCT116 cells assessed as upregulation of HO-1 gene expression at 20 uM after 8 hrs by qRT-PCR analysis in presence of siRNA relative to siRNA nontreated control. The format is cell-based. Conditions: HCT-116.
For series [17] the target is unchanged. Description: Activation of Nrf2 in human HCT116 cells measured at 4 hrs by qRT-PCR analysis. The format is cell-based. Conditions: HCT-116.
Series [18] has the same target. Description: Activation of Nrf2 in human HCT116 cells assessed as upregulation of GCLM gene expression at 20 uM after 8 hrs by qRT-PCR analysis in presence of siRNA relative to siRNA nontreated control. It counts as cell-based. The following applies: HCT-116.
The target is the same in series [19]. Kind of series: Induction of Nrf2 phosphorylation at S40 in cytoplasm of human HCT116 cells at 20 uM after 4 hrs by Western blot analysis. The format is cell-based. The following applies: HCT-116.
For series [20] the target is unchanged. Kind of series: Activation of Nrf2 in human HCT116 cells assessed as upregulation of NQO1 gene expression at 20 uM after 8 hrs by qRT-PCR analysis in presence of siRNA relative to siRNA nontreated control. Conditions: HCT-116. It counts as cell-based.
For the next series, the system named is HCT-116. Kind of series: Cytotoxicity against human HCT116 cells assessed as reduction of cell proliferation at 80 uM after 24 hrs by MTT assay. The format is cell-based. The following applies: hct-116, 24 h.
The nature of series [21]: Dissociation constant, pKa of the compound by potentiometric titration method. It counts as physicochemical.
For series [22], the system named is Mus musculus. Description: Antiinflammatory activity in ip dosed C57BL/6 mouse assessed as inhibition of LPS-induced IL-6 expression in lung pretreated for 48 hrs followed by LPS challenge measured after 5 hrs by immunohistochemical analysis. The format is functional, organism-based.
Series [23] is described as follows: Lipophilicity, log D of the compound at pH 7.4 by potentiometric titration method. The format is physicochemical. Conditions: buffer.
Series [24] deals with T1, Nuclear factor erythroid 2-related factor 2 (Homo sapiens). Kind of series: Activation of Nrf2 in human HCT116 cells assessed as upregulation of NQO1 expression after 8 hrs by Western blot analysis. Conditions: HCT-116. The format is cell-based.
In series [25] the test system is Mus musculus. Kind of series: Antiinflammatory activity in ip dosed C57BL/6 mouse assessed as reduction of LPS-induced IL-17 level in serum pretreated for 48 hrs followed by LPS challenge measured after 5 hrs by ELISA relative to LPS-treated control. It counts as functional, organism-based.
The test system of series [26] is Mus musculus. Kind of series: Antiinflammatory activity in ip dosed C57BL/6 mouse assessed as reduction of LPS-induced IL-12 level in serum pretreated for 48 hrs followed by LPS challenge measured after 5 hrs by ELISA relative to LPS-treated control. It counts as functional, organism-based.
For series [27], the target named is T1, Nuclear factor erythroid 2-related factor 2 (Homo sapiens). Description: Induction of phosphorylated Nrf2 at S40 translocation from cytoplasm to nucleus in human HCT116 cells at 20 uM after 4 hrs by Western blot analysis. The format is cell-based. Conditions: HCT-116.
The test system of series [28] is Mus musculus. Description: Antiinflammatory activity in ip dosed C57BL/6 mouse assessed as reduction of LPS-induced IFN-gamma level in serum pretreated for 48 hrs followed by LPS challenge measured after 5 hrs by ELISA relative to LPS-treated control. It counts as functional, organism-based.
Series [29] relates to Mus musculus. Description: In vivo activation of Nrf2 in LPS-stimulated ip dosed C57BL/6 mouse lung pretreated for 48 hrs followed by LPS challenge measured after 5 hrs by Western blot analysis. The format is functional, organism-based.
Series [30] addresses T1, Nuclear factor erythroid 2-related factor 2 (Homo sapiens). Description: Activation of Nrf2 in human HCT116 cells assessed as upregulation of NQO1 gene expression measured at 4 hrs by qRT-PCR analysis. It counts as cell-based. Conditions: HCT-116.
For series [31] the target is unchanged. Description: Induction of Nrf2 translocation from cytoplasm to nucleus in human HCT116 cells at 20 uM after 4 hrs by Western blot analysis. The format is cell-based. The following applies: HCT-116.
A short description of series [32]: Intrinsic aqueous solubility of the compound by potentiometric titration method. It counts as physicochemical. The following applies: read-out: Intrinsic_solubility.
The target of series [33] is T1, Nuclear factor erythroid 2-related factor 2 (Homo sapiens). Kind of series: Activation of Nrf2 in human HCT116 cells at 20 uM after 8 hrs by qRT-PCR analysis in presence of siRNA relative to siRNA nontreated control. It counts as cell-based. Conditions: HCT-116.
For series [34], the system named is Mus musculus. Kind of series: In vivo activation of Nrf2 in LPS-stimulated C57BL/6 mouse lung at 10 to 80 mg/kg/day, ip pretreated for 48 hrs followed by LPS challenge measured after 5 hrs by DAPI staining-based laser scanning confocal microscopic analysis. It counts as functional, organism-based.
In series [35] the test system is Mus musculus. Description: Antiinflammatory activity in ip dosed C57BL/6 mouse assessed as reduction of LPS-induced IL-6 level in serum pretreated for 48 hrs followed by LPS challenge measured after 5 hrs by ELISA relative to LPS-treated control. It counts as functional, organism-based.
Series [36] can be described thus: Permeability of the compound at pH 7.4 by PAMPA. It counts as physicochemical. Conditions: read-out: permeability.
The target in series [37] is T1, Nuclear factor erythroid 2-related factor 2 (Homo sapiens). Kind of series: Activation of Nrf2 in human HepG2-ARE-C8 cells assessed as upregulation of ARE level after 12 hrs by luciferase reporter gene assay. The format is cell-based.
Series [38] has the same target. Kind of series: Activation of Nrf2 in human HCT116 cells assessed as upregulation of HO-1 expression after 8 hrs by Western blot analysis. It counts as cell-based. Conditions: HCT-116.
Series [39] relates to Mus musculus. Description: Antiinflammatory activity in ip dosed C57BL/6 mouse assessed as reduction of LPS-induced TNF-alpha level in serum pretreated for 48 hrs followed by LPS challenge measured after 5 hrs by ELISA relative to LPS-treated control. It counts as functional, organism-based.

Converted amounts (≈) assume the structure as drawn. The source made the active and inactive calls. The calls are words filed in the database; no cut-off is given here.

Regarding `C[C@@H]1C[C@H]2[C@@H]3CCC4=CC(=O)C=C[C@]4(C)[C@@]3(F)[C@@H](O)C[C@]2(C)[C@@]1(O)C(=O)CO` [DEXAMETHASONE], the result in the series with Mus musculus [1], in the series on Mus musculus [2], in the series with Mus musculus [3], with Mus musculus [4], in the series on Mus musculus [5] and in the series on Mus musculus [7] was Active. Besides, the result with Mus musculus [8] and in the series on Mus musculus [9] was Active. For the same compound, the Activity result in the series on Mus musculus [6] is “Non-toxic”.

One may read the pKa as the pH at which an ionisable group is half protonated. Higher therefore signals a group that holds its proton tightly. What is called logD is lipophilicity at a set pH, counting ionised and neutral species. Read a low logD as lower lipophilicity. With `Fc1ccc(-c2nc(-c3ccc4nc[nH]c4c3)no2)cc1`, the Activity entry in series [10] is “Dose-dependent effect”; in the series on Mus musculus [12] it was “Non-toxic”; in [14], “Dose-dependent effect”; in [15], “Dose-dependent effect”; in series [17] it was “Dose-dependent effect”; in the series on HCT-116 it was “Non-toxic”. Besides, the Activity result (in series [24]; in the series on Mus musculus [25]; with Mus musculus [26]; with Mus musculus [28]; in the series on Mus musculus [29]; in [30]) was “Dose-dependent effect” throughout. Moreover, the Activity result (in the series with Mus musculus [35]; in [37]; in series [38]; in the series with Mus musculus [39]) was “Dose-dependent effect” throughout. The outcome (in the series with Mus musculus [11]; in series [13]; in series [16]; in series [18]; in [19]; in series [20]) was Active. Moreover, the result (in series [27]; in series [31]; in [33]; in the series on Mus musculus [34]) was Active. Moreover, the pKa in series [21] was determined as 3.57. For the same compound, the inhibition entry in the series with Mus musculus [22] is “Dose-dependent effect”. The compound also yielded a logD in series [23] of 3.37. Besides, in series [32], the solubility worked out at 66.9 µM (≈ 18.7 µg/mL). Further, in [36], the Papp was found to be 19.6 ×10⁻⁶ cm/s.

Source of the values: ChEMBL document CHEMBL3585308, “Discovery and Modification of in Vivo Active Nrf2 Activators with 1,2,4-Oxadiazole Core: Hits Identification and Structure-Activity Relationship Study” (J Med Chem, 2015).
